Our source for the relative viability values is the supplement of paper PMC10307832.

The subject of one test is PC-3 [JPC-3]. The test can be described thus: relative viability (nuclei count vs DMSO), 5 days (fraction); higher = more cells survive. Particulars: first compound 0.6325 µM. An outline of the steps: (§1)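 Lung cancer cell lines were seeded in 1536-well plates and dosed by pin tool the next day, with either a single drug or a fixed anchor-drug dose combined with five library-drug doses (not always all listed) spaced in √10 steps. Five days later, one step fixed the cells and stained their nuclei (final 0.05% Triton X-100, 1% formaldehyde, 1 ug/ml Hoechst), and nuclei were counted on 4× images. Relative viability is the nuclei count in treated wells divided by the count in vehicle wells, and each value is the median of duplicate plates.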
Turning to `COCC1(CO)C(=O)C2CCN1CC2` (stereo not given) [PRIMA-1MET] + Nc1ncn([C@H]2C[C@H](O)[C@@H](CO)O2)c(=O)n1 [Decitabine] (partner 2 µM), the relative viability turned out to be 0.712.

Compound `COCC1(CO)C(=O)C2CCN1CC2` (stereo not given) [PRIMA-1MET] + O=C(c1cc(Cc2n[nH]c(=O)c3ccccc23)ccc1F)N1CCN(C(=O)C2CC2)CC1 [Olaparib] (partner 8 µM) showed a relative viability of 1.26.

In turn, `COCC1(CO)C(=O)C2CCN1CC2` (stereo not given) [PRIMA-1MET] + C[C@@H](Oc1cc(-c2cnn(C3CCNCC3)c2)cnc1N)c1c(Cl)ccc(F)c1Cl [Crizotinib] (partner 1 µM) returned a relative viability of 0.911.

The same test, now with this note: first compound 2 µM.
The compound `COCC1(CO)C(=O)C2CCN1CC2` (stereo not given) [PRIMA-1MET] + CC(C)C[C@H](NC(=O)[C@H](Cc1ccccc1)NC(=O)c1cnccn1)B(O)O [Bortezomib] (partner 0.002 µM) returned a relative viability of 0.874.

Consider `COCC1(CO)C(=O)C2CCN1CC2` (stereo not given) [PRIMA-1MET] + CC(=O)Nc1cccc(-n2c(=O)n(C3CC3)c(=O)c3c(Nc4ccc(I)cc4F)n(C)c(=O)c(C)c32)c1 [Trametinib] (partner 0.02 µM), for which the relative viability stood at 0.733.

For the compound `COCC1(CO)C(=O)C2CCN1CC2` (stereo not given) [PRIMA-1MET] + Nc1ncn([C@H]2C[C@H](O)[C@@H](CO)O2)c(=O)n1 [Decitabine] (partner 2 µM), the relative viability was found to be 0.841.

The compound `COCC1(CO)C(=O)C2CCN1CC2` (stereo not given) [PRIMA-1MET] + O=C(c1cc(Cc2n[nH]c(=O)c3ccccc23)ccc1F)N1CCN(C(=O)C2CC2)CC1 [Olaparib] (partner 8 µM) registered a relative viability of 1.11.

Take `COCC1(CO)C(=O)C2CCN1CC2` (stereo not given) [PRIMA-1MET] + C[C@@H](Oc1cc(-c2cnn(C3CCNCC3)c2)cnc1N)c1c(Cl)ccc(F)c1Cl [Crizotinib] (partner 1 µM): the relative viability worked out at 0.966.

The test is the same for the next values; noted with them: first compound 6.325 µM.
`COCC1(CO)C(=O)C2CCN1CC2` (stereo not given) [PRIMA-1MET] + CC(C)C[C@H](NC(=O)[C@H](Cc1ccccc1)NC(=O)c1cnccn1)B(O)O [Bortezomib] (partner 0.002 µM): the relative viability was 0.858.

In the case of `COCC1(CO)C(=O)C2CCN1CC2` (stereo not given) [PRIMA-1MET] + CC(=O)Nc1cccc(-n2c(=O)n(C3CC3)c(=O)c3c(Nc4ccc(I)cc4F)n(C)c(=O)c(C)c32)c1 [Trametinib] (partner 0.02 µM), the relative viability turned out to be 0.696.

`COCC1(CO)C(=O)C2CCN1CC2` (stereo not given) [PRIMA-1MET] + Nc1ncn([C@H]2C[C@H](O)[C@@H](CO)O2)c(=O)n1 [Decitabine] (partner 2 µM) registered a relative viability of 0.84.

Compound `COCC1(CO)C(=O)C2CCN1CC2` (stereo not given) [PRIMA-1MET] + O=C(c1cc(Cc2n[nH]c(=O)c3ccccc23)ccc1F)N1CCN(C(=O)C2CC2)CC1 [Olaparib] (partner 8 µM) yielded a relative viability of 1.14.

Compound `COCC1(CO)C(=O)C2CCN1CC2` (stereo not given) [PRIMA-1MET] + C[C@@H](Oc1cc(-c2cnn(C3CCNCC3)c2)cnc1N)c1c(Cl)ccc(F)c1Cl [Crizotinib] (partner 1 µM) yielded a relative viability of 1.07.

Still in this test, the particulars now being: first compound 20 µM.
The compound `COCC1(CO)C(=O)C2CCN1CC2` (stereo not given) [PRIMA-1MET] + CC(C)C[C@H](NC(=O)[C@H](Cc1ccccc1)NC(=O)c1cnccn1)B(O)O [Bortezomib] (partner 0.002 µM) showed a relative viability of 0.792.

With `COCC1(CO)C(=O)C2CCN1CC2` (stereo not given) [PRIMA-1MET] + CC(=O)Nc1cccc(-n2c(=O)n(C3CC3)c(=O)c3c(Nc4ccc(I)cc4F)n(C)c(=O)c(C)c32)c1 [Trametinib] (partner 0.02 µM), the relative viability worked out at 0.614.

As to `COCC1(CO)C(=O)C2CCN1CC2` (stereo not given) [PRIMA-1MET] + Nc1ncn([C@H]2C[C@H](O)[C@@H](CO)O2)c(=O)n1 [Decitabine] (partner 2 µM), the relative viability stood at 0.802.

Turning to `COCC1(CO)C(=O)C2CCN1CC2` (stereo not given) [PRIMA-1MET] + O=C(c1cc(Cc2n[nH]c(=O)c3ccccc23)ccc1F)N1CCN(C(=O)C2CC2)CC1 [Olaparib] (partner 8 µM), the relative viability came to 0.981.

`COCC1(CO)C(=O)C2CCN1CC2` (stereo not given) [PRIMA-1MET] + C[C@@H](Oc1cc(-c2cnn(C3CCNCC3)c2)cnc1N)c1c(Cl)ccc(F)c1Cl [Crizotinib] (partner 1 µM) came in with a relative viability of 0.951.

The next test has as its system NCI-H2009. The test is described as above. Particulars: first compound 0.2 µM. An outline of the steps: as §1
`COCC1(CO)C(=O)C2CCN1CC2` (stereo not given) [PRIMA-1MET] + CC(C)C[C@H](NC(=O)[C@H](Cc1ccccc1)NC(=O)c1cnccn1)B(O)O [Bortezomib] (partner 0.002 µM): the relative viability was determined as 0.714.

Regarding `COCC1(CO)C(=O)C2CCN1CC2` (stereo not given) [PRIMA-1MET] + CC(=O)Nc1cccc(-n2c(=O)n(C3CC3)c(=O)c3c(Nc4ccc(I)cc4F)n(C)c(=O)c(C)c32)c1 [Trametinib] (partner 0.02 µM), the relative viability is 0.246.

For `COCC1(CO)C(=O)C2CCN1CC2` (stereo not given) [PRIMA-1MET] + Nc1ncn([C@H]2C[C@H](O)[C@@H](CO)O2)c(=O)n1 [Decitabine] (partner 2 µM), the relative viability turned out to be 0.383.

The compound `COCC1(CO)C(=O)C2CCN1CC2` (stereo not given) [PRIMA-1MET] + O=C(c1cc(Cc2n[nH]c(=O)c3ccccc23)ccc1F)N1CCN(C(=O)C2CC2)CC1 [Olaparib] (partner 8 µM) gave a relative viability of 0.657.

`COCC1(CO)C(=O)C2CCN1CC2` (stereo not given) [PRIMA-1MET] + C[C@@H](Oc1cc(-c2cnn(C3CCNCC3)c2)cnc1N)c1c(Cl)ccc(F)c1Cl [Crizotinib] (partner 1 µM): the relative viability was found to be 0.99.

The same test, now with this note: first compound 0.6325 µM.
Consider `COCC1(CO)C(=O)C2CCN1CC2` (stereo not given) [PRIMA-1MET] + CC(C)C[C@H](NC(=O)[C@H](Cc1ccccc1)NC(=O)c1cnccn1)B(O)O [Bortezomib] (partner 0.002 µM), for which the relative viability was determined as 0.885.

For `COCC1(CO)C(=O)C2CCN1CC2` (stereo not given) [PRIMA-1MET] + CC(=O)Nc1cccc(-n2c(=O)n(C3CC3)c(=O)c3c(Nc4ccc(I)cc4F)n(C)c(=O)c(C)c32)c1 [Trametinib] (partner 0.02 µM), the relative viability was 0.306.

On to `COCC1(CO)C(=O)C2CCN1CC2` (stereo not given) [PRIMA-1MET] + Nc1ncn([C@H]2C[C@H](O)[C@@H](CO)O2)c(=O)n1 [Decitabine] (partner 2 µM), for which the relative viability is 0.389.

The compound `COCC1(CO)C(=O)C2CCN1CC2` (stereo not given) [PRIMA-1MET] + O=C(c1cc(Cc2n[nH]c(=O)c3ccccc23)ccc1F)N1CCN(C(=O)C2CC2)CC1 [Olaparib] (partner 8 µM) displayed a relative viability of 0.814.

In turn, `COCC1(CO)C(=O)C2CCN1CC2` (stereo not given) [PRIMA-1MET] + C[C@@H](Oc1cc(-c2cnn(C3CCNCC3)c2)cnc1N)c1c(Cl)ccc(F)c1Cl [Crizotinib] (partner 1 µM) displayed a relative viability of 0.889.

The same test, now with this note: first compound 2 µM.
In turn, `COCC1(CO)C(=O)C2CCN1CC2` (stereo not given) [PRIMA-1MET] + CC(C)C[C@H](NC(=O)[C@H](Cc1ccccc1)NC(=O)c1cnccn1)B(O)O [Bortezomib] (partner 0.002 µM) gave a relative viability of 0.779.

Compound `COCC1(CO)C(=O)C2CCN1CC2` (stereo not given) [PRIMA-1MET] + CC(=O)Nc1cccc(-n2c(=O)n(C3CC3)c(=O)c3c(Nc4ccc(I)cc4F)n(C)c(=O)c(C)c32)c1 [Trametinib] (partner 0.02 µM) gave a relative viability of 0.237.
